# Where two headings read alike, the source gives them in different places.
# What was measured:
# Experiment in all cases: CellTiter-Glo, NCI60 panel
# Assay type in all cases: cell-based
# K-562 = conditions: for GI50: Homo sapiens, K562, Leukemia
# Description: (§1) Identification of tumor types that are the most sensitive to the KSP inhibitors of the present invention can be accomplished using an unbiased approach that uses several cell-based assays. The assays chosen were as follows: • CellTiter-Glo®. This is an assay designed to measure ATP concentration in a cell culture, and can be correlated to cell number. Briefly CellTiter-Glo® (Promega Corporation) is a homogeneous method using the single CellTiter-Glo® reagent to detect ATP wherein ATP in the assay drives the activity of a thermostable luciferase to create a luminescent signal which can then be measured and correlated with the number of viable cells. Briefly, for adherent cells, 1,000 to 5,000 cells/well were plated in 96-well plates (100 μl/well) and let to adhere for 24 hours before being treated with drug. For non-adherent cells, 1,000 to 10,000 cells/well were plated in 96-well plates (100 μl/well) and immediately treated with drug. Drug dilutions were prepared in DMSO at 1000 times the final concentration. These dilutions were then diluted 1/100 in growth media before being added to the cells (11 μl/well) to achieve the desired final concentration. After 48 h in a 37° C. tissue culture incubator, the plates were processed for the CellTiter-Glo®assay according to the manufacturer's instructions. Protocol for a 72 hour cell proliferation assay: The 72 hour assay was performed the same way as the 48 hour assay except for the following modifications: For adherent cells, 500 to 5,000 cells/well were plated in 96-well plates (90 μl/well cell growth media) and left to adhere for 24 hours before being treated with drug. For non-adherent cells, 1,000 to 10,000 cells/well were plated in 96-well plates (90 μl/well cell growth media) and immediately treated with drug. Data values presented represent the concentration of test compound required for a 50% reduction in growth. • LDH release. The Cytotoxicity Detection KitPLUS (LDH) assay (Roche Diagnostics, Manheim, Germany) measures the amount of LDH released in the media by dying cells; LDH catalyzes the conversion of lactate into pyruvate. The enzymatic reaction is coupled to a chemical reaction that uses a tetrazolium salt to form a formazan that is red and can be detected by its absorbance at 490 nm. This assay measures the amount of cell death after drug treatment. Cells were plated at 10,000 cells/well in 96-well plates (100 μl/well). Adherent cells were let to adhere for 24 hours before being treated with drug, whereas non-adherent cells were immediately treated with drug. Drug dilutions were prepared in DMSO at 1000 times the final concentration. These dilutions were then diluted 1/100 in growth media before being added to the cells (11 μl/well) to achieve the desired final concentration. After 48 h in a 37° C. tissue culture incubator, the plates were processed for the Cytotoxicity Detection KitPLUS (LDH) assay according to the manufacturer's instructions. The media only values were subtracted from all the data points before analysis. Data values presented correspond to the compound concentration wherein LDH output is at half maximal level. • Caspase-Glo® 3/7. The Caspase-Glo® 3/7 Assay (Promega Corporation) is a homogeneous luminescent assay that measures caspase-3/7 activities. The assay provides a proluminescent caspase-3/7 DEVD-aminoluciferin substrate and a thermostable luciferase in a reagent optimized for caspase-3/7 activity, luciferase activity and cell lysis. Adding the single Caspase-Glo® 3/7 Reagent results in cell lysis, followed by caspase cleavage of the substrate. This liberates free aminoluciferin, which is consumed by the luciferase, generating a luminescent signal. The signal is proportional to caspase-3/7 activity. Data values presented correspond to the compound concentration wherein caspase 3/7 activity is at half maximal level. […]
# CAKI-1 = conditions: Renal; for GI50: Homo sapiens
# Description: as §1
# 786-0 = conditions: Renal; for GI50: Homo sapiens
# Description: as §1
# U251 = conditions: for GI50: Homo sapiens, U-251, CNS
# Description: as §1
# SR = conditions: Leukemia; for GI50: Homo sapiens
# Description: as §1
# BT-549 = conditions: Breast; for GI50: Homo sapiens
# Description: as §1
# DU-145 = conditions: Prostate; for GI50: Homo sapiens
# Description: as §1
# RPMI-8226 = conditions: Leukemia; for GI50: Homo sapiens
# Description: as §1
# NCI-H322M = conditions: NSCL; for GI50: Homo sapiens
# Description: as §1
# MDA-MB-435 = conditions: Melanoma; for GI50: Homo sapiens
# Description: as §1
# SF-295 = conditions: CNS; for GI50: Homo sapiens
# Description: as §1
# IGROV1 = conditions: for GI50: Homo sapiens, IGROV-1, Ovarian
# Description: as §1
# HL-60 = conditions: Leukemia; for GI50: Homo sapiens
# Description: as §1
# SN12C = conditions: Renal; for GI50: Homo sapiens
# Description: as §1
# TK-10 = conditions: Renal; for GI50: Homo sapiens
# Description: as §1
# SNB-75 = conditions: CNS; for GI50: Homo sapiens
# Description: as §1
# [1] = GI50 in nM, read-out: Log(GI50) (converted)
compound,measurement,setting,value
CC(C)(C)[C@H](c1nc(-c2cc(F)ccc2F)cn1Cc1ccccc1)N(CC[C@H](N)CF)C(=O)CO [Compound IIa],GI50,K-562; [1],0.218 nM
same,GI50,K-562; read-out: GI50,0.218 nM
same,Differential vs mean Log(GI50),K-562; Leukemia,0.993
same,GI50,CAKI-1; [1],10 nM
same,GI50,CAKI-1; read-out: GI50,10 nM
same,Differential vs mean Log(GI50),CAKI-1,−0.669
same,GI50,786-0; [1],10 nM
same,GI50,786-0; read-out: GI50,10 nM
same,Differential vs mean Log(GI50),786-0,−0.669
same,Differential vs mean Log(GI50),U251; CNS,0.953
same,GI50,U251; [1],0.239 nM
same,GI50,U251; read-out: GI50,0.239 nM
same,GI50,SR; [1],0.095 nM
same,GI50,SR; read-out: GI50,0.095 nM
same,Differential vs mean Log(GI50),SR,1.353
same,Differential vs mean Log(GI50),BT-549,0.423
same,GI50,BT-549; [1],0.809 nM
same,GI50,BT-549; read-out: GI50,0.809 nM
same,GI50,DU-145; [1],0.435 nM
same,GI50,DU-145; read-out: GI50,0.435 nM
same,Differential vs mean Log(GI50),DU-145,0.693
same,GI50,RPMI-8226; [1],0.351 nM
same,GI50,RPMI-8226; read-out: GI50,0.351 nM
same,Differential vs mean Log(GI50),RPMI-8226,0.786
same,GI50,NCI-H322M; [1],10 nM
same,GI50,NCI-H322M; read-out: GI50,10 nM
same,Differential vs mean Log(GI50),NCI-H322M,−0.669
same,GI50,MDA-MB-435; [1],0.152 nM
same,GI50,MDA-MB-435; read-out: GI50,0.152 nM
same,Differential vs mean Log(GI50),MDA-MB-435,1.149
same,Differential vs mean Log(GI50),SF-295,1.122
same,GI50,SF-295; [1],0.162 nM
same,GI50,SF-295; read-out: GI50,0.162 nM
same,GI50,IGROV1; [1],10 nM
same,GI50,IGROV1; read-out: GI50,10 nM
same,Differential vs mean Log(GI50),IGROV1; Ovarian,−0.669
same,GI50,HL-60; [1],0.165 nM
same,GI50,HL-60; read-out: GI50,0.165 nM
same,Differential vs mean Log(GI50),HL-60,1.114
same,GI50,SN12C; [1],10 nM
same,GI50,SN12C; read-out: GI50,10 nM
same,Differential vs mean Log(GI50),SN12C,−0.669
same,GI50,TK-10; [1],10 nM
same,GI50,TK-10; read-out: GI50,10 nM
same,Differential vs mean Log(GI50),TK-10,−0.669
same,Differential vs mean Log(GI50),SNB-75,−0.669
same,GI50,SNB-75; [1],10 nM
same,GI50,SNB-75; read-out: GI50,10 nM
